Patent US20090176811A1, “Substituted 5,6,7,8-Tetrahydro-pyrido[4,3-d]pyrimidine-2-yl Compounds and 5,6,7,8-Tetrahydro-quinazoline-2-yl Compounds” (GRUENENTHAL GmbH, priority 2004, published 2009)

Each compound was assayed on batrachotoxin (BTX) binding site of the sodium channel (assay: Affinity for the batrachotoxin (BTX) binding site of the sodium channel ([3H]-Batrachotoxinin A20 benzoate, rat cerebrocortex synaptosomes)). Conditions: [3H]-Batrachotoxinin A20 benzoate 10 nM, test concentration not given.

Compound	BTX inhibition
O=C(Nc1ncc2c(n1)CCC(NS(=O)(=O)c1cc(Cl)sc1Cl)C2)c1cccs1 (stereo not shown) [Example 180, thiophene-2-carboxylic acid [6-(2,5-dichloro-thiophene-3-sulfonylamino)-5,6,7,8-tetrahydro-quinazolin-2-yl]-amide]	46
Cc1ccc(S(=O)(=O)N2CCc3nc(NC(=O)c4cccc(F)c4)ncc3C2)cc1 [Example 143, 3-fluoro-N-[6-(toluene-4-sulfonyl)-5,6,7,8-tetrahydro-pyrido[4,3-d]pyrimidin-2-yl]-benzamide]	61
O=C(Nc1ncc2c(n1)CCN(S(=O)(=O)c1cccc(Br)c1)C2)c1cccc(Cl)c1 [Example 125, N-[6-(3-bromo-benzenesulfonyl)-5,6,7,8-tetrahydro-pyrido[4,3-d]pyrimidin-2-yl]-3-chloro-benzamide]	66
O=C(Nc1ncc2c(n1)CCN(C(=O)C1=Cc3ccccc3OC1)C2)c1ccc(F)c(F)c1 [Example 175, N-[6-(2H-chromene-3-carbonyl)-5,6,7,8-tetrahydro-pyrido[4,3-d]pyrimidin-2-yl]-3,4-difluoro-benzamide]	49
COc1cccc(C(=O)Nc2ncc3c(n2)CCN(S(=O)(=O)c2cc(Br)ccc2OC)C3)c1 [Example 129, N-[6-(5-bromo-2-methoxy-benzenesulfonyl)-5,6,7,8-tetrahydro-pyrido[4,3-d]pyrimidin-2-yl]-3-methoxy-benzamide]	76
CC(C)(C)c1ccc(C(=O)Nc2ncc3c(n2)CCN(S(=O)(=O)c2ccc4c(c2)OCCO4)C3)cc1 [Example 186, 4-tert-butyl-N-[6-(2,3-dihydro-benzo[1,4]dioxin-6-sulfonyl)-5,6,7,8-tetrahydro-pyrido[4,3-d]pyrimidin-2-yl]-benzamide]	77
Cc1cc(C)c(C)c(S(=O)(=O)N2CCc3nc(NC(=O)c4cccs4)ncc3C2)c1C [Example 99, thiophene-2-carboxylic acid [6-(2,3,5,6-tetramethyl-benzenesulfonyl)-5,6,7,8-tetrahydro-pyrido[4,3-d]pyrimidin-2-yl]-amide]	78
COc1ccccc1C(=O)Nc1ncc2c(n1)CCN(C(=O)c1cc(-c3ccc(Cl)cc3)oc1C)C2 [Example 78, N-{6-[5-(4-chloro-phenyl)-2-methyl-furan-3-carbonyl]-5,6,7,8-tetrahydro-pyrido[4,3-d]pyrimidin-2-yl}-2-methoxy-benzamide]	31
O=C(Nc1ncc2c(n1)CCN(C(=O)c1sc3ccccc3c1Cl)C2)c1ccccc1 [Example 120, N-[6-(3-chloro-benzo[b]thiophene-2-carbonyl)-5,6,7,8-tetrahydro-pyrido[4,3-d]pyrimidin-2-yl]-benzamide]	48
CCCC(=O)Nc1ncc2c(n1)CCC(NC(=O)c1ccc(Cc3ccccc3)o1)C2 (stereo not shown) [Example 133, 5-benzyl-furan-2-carboxylic acid (2-butyrylamino-5,6,7,8-tetrahydro-quinazolin-6-yl)-amide]	39
O=C(Nc1ncc2c(n1)CCN(C(=O)c1c(F)cccc1Cl)C2)c1cccc(Cl)c1 [Example 127, 3-chloro-N-[6-(2-chloro-6-fluoro-benzoyl)-5,6,7,8-tetrahydro-pyrido[4,3-d]pyrimidin-2-yl]-benzamide]	30
CC(C)C(NC(=O)OCC1c2ccccc2-c2ccccc21)C(=O)NC1CCc2nc(NC(=O)c3cccs3)ncc2C1 (stereo not shown) [Example 139, (2-methyl-1-{2-[(thiophene-2-carbonyl)-amino]-5,6,7,8-tetrahydro-quinazolin-6-ylcarbamoyl}-propyl)-carbamic acid 9H-fluoren-9-ylmethyl ester]	62
CCCC(=O)Nc1ncc2c(n1)CCC(NC(=O)C=Cc1cccc(C(F)(F)F)c1)C2 (stereo not shown) [Example 168, N-(2-butyrylamino-5,6,7,8-tetrahydro-quinazolin-6-yl)-3-(3-trifluoromethyl-phenyl)-acrylamide]	39
